Results as given in PubChem BioAssay AID248 (DTP/NCI, 2004).
“And” between values parts separate entries of the source, which are not always exact repeats. Equal values may be shown once. Toxic doses and inconclusive results are not listed. No stated cut-off is given here; in the data, active means T/C of 150% or more; inactive means T/C below 125%.

Test system: L1210 leukemia ip in BDF1 mice, survival T/C
Test: NCI In Vivo Anticancer Drug Screen. Data for tumor model L1210 Leukemia (intraperitoneal) in B6D2F1 (BDF1) mice
Conditions: endpoint: mean survival time, higher = longer survival
Summary of the method: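 Transplantable tumor model; survival measured in treated vs vehicle control mice. Value = treated/control.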

[1] = dose: 25.0 mg/kg/injection, schedule: Q04DX003 (ip), vehicle: saline with Tween-80
[2] = dose: 50.0 mg/kg/injection, schedule: Q04DX003 (ip), vehicle: saline with Tween-80
[3] = dose: 100.0 mg/kg/injection, schedule: Q04DX003 (ip), vehicle: saline with Tween-80
[4] = dose: 100.0 mg/kg/injection, schedule: Q01DX001 (ip), vehicle: saline
[5] = dose: 200.0 mg/kg/injection, schedule: Q01DX001 (ip), vehicle: saline
[6] = dose: 400.0 mg/kg/injection, schedule: Q01DX001 (ip), vehicle: saline
[7] = dose: 100.0 mg/kg/injection, schedule: Q04DX002 (ip), vehicle: saline with Tween-80
[8] = dose: 30.0 mg/kg/injection, schedule: Q01DX009 (ip), vehicle: saline
[9] = dose: 100.0 mg/kg/injection, schedule: Q04DX003 (ip), vehicle: Klucel (hydroxypropylcellulose) (HPC)
[10] = dose: 200.0 mg/kg/injection, schedule: Q04DX003 (ip), vehicle: Klucel (hydroxypropylcellulose) (HPC)
[11] = dose: 400.0 mg/kg/injection, schedule: Q04DX003 (ip), vehicle: Klucel (hydroxypropylcellulose) (HPC)
[12] = dose: 100.0 mg/kg/injection, schedule: Q01DX001 (ip), vehicle: carboxymethylcellulose (CMC)
[13] = dose: 200.0 mg/kg/injection, schedule: Q01DX001 (ip), vehicle: carboxymethylcellulose (CMC)
[14] = dose: 400.0 mg/kg/injection, schedule: Q01DX001 (ip), vehicle: carboxymethylcellulose (CMC)
[15] = dose: 200.0 mg/kg/injection, schedule: Q04DX003 (ip), vehicle: saline with Tween-80
[16] = dose: 50.0 mg/kg/injection, schedule: Q01DX009 (ip), vehicle: saline
[17] = dose: 100.0 mg/kg/injection, schedule: Q01DX009 (ip), vehicle: saline
[18] = dose: 100.0 mg/kg/injection, schedule: Q04DX003 (ip), vehicle: saline
[19] = dose: 200.0 mg/kg/injection, schedule: Q01DX009 (ip), vehicle: saline
[20] = dose: 200.0 mg/kg/injection, schedule: Q04DX003 (ip), vehicle: saline

Measured: T/C

ClC(Cl)(Cl)c1nc2nccnc2[nH]1
inactive: [1] 98 % of control | [2] 97 % of control | dose: 100.0 mg/kg/injection, schedule: Q04DX003 (ip), vehicle: saline sonified 96 % of control | [3] 110 % of control

O=C1Nc2ccccc2CS1
inactive: [4] 100 % of control | [5] 97 % of control | [6] 94 % of control

CC(C)C(N)(CCCN(C)C)c1cccc2ccccc12 (stereo unspecified)
inactive: [7] 98 % of control

CC(C)C(=O)Nc1cc(Cl)ccc1Cl
inactive: dose: 100.0 mg/kg/injection, schedule: Q01DX001 (ip), vehicle: other 94 % of control | dose: 200.0 mg/kg/injection, schedule: Q01DX001 (ip), vehicle: other 97 % of control | dose: 400.0 mg/kg/injection, schedule: Q01DX001 (ip), vehicle: other 92 % of control

CCCCCCCCCCCCCCCC[N+](C)(C)c1nc(Cl)nc(Cl)n1
inactive: dose: 3.75 mg/kg/injection, schedule: Q01DX009 (ip), vehicle: saline 102 % of control | dose: 7.5 mg/kg/injection, schedule: Q01DX009 (ip), vehicle: saline 97 % of control | dose: 15.0 mg/kg/injection, schedule: Q01DX009 (ip), vehicle: saline 96 % of control | [8] 96 % of control | dose: 37.5 mg/kg/injection, schedule: Q04DX003 (ip), vehicle: saline 102 % of control | dose: 50.0 mg/kg/injection, schedule: Q01DX001 (ip), vehicle: water 105 % of control | dose: 75.0 mg/kg/injection, schedule: Q04DX003 (ip), vehicle: saline 102 % of control | dose: 100.0 mg/kg/injection, schedule: Q01DX001 (ip), vehicle: water 100 % of control

CC(=O)c1cc(C)c(O)cc1C
inactive: [7] 103 % of control | dose: 200.0 mg/kg/injection, schedule: Q04DX002 (ip), vehicle: saline with Tween-80 92 % of control | dose: 400.0 mg/kg/injection, schedule: Q04DX002 (ip), vehicle: saline with Tween-80 111 % of control

O=c1oc2ccccc2c(O)c1C(c1ccc(C(c2c(O)c3ccccc3oc2=O)c2c(O)c3ccccc3oc2=O)cc1)c1c(O)c2ccccc2oc1=O
inactive: [9] 105 % of control | [10] 99 % of control | [11] 93 % of control

O=P1(Cc2ccccc2)C(c2ccccc2)=C(O)CC1c1ccccc1 (stereo unspecified)
inactive: [9] 101 % of control | [10] 99 % of control | [11] 89 % of control

NC(=O)c1ncn(C2CC(CO)C(O)C2O)c1N (stereo unspecified)
inactive: [4] 100 % of control | [5] 110 % of control | [6] 104 % of control

C=CC[N+](CC=C)(CC=C)CC[N+](CC=C)(CC=C)CC=C
inactive: dose: 6.25 mg/kg/injection, schedule: Q01DX009 (ip), vehicle: water 109 % of control | dose: 12.5 mg/kg/injection, schedule: Q01DX009 (ip), vehicle: water 111 % of control | dose: 25.0 mg/kg/injection, schedule: Q01DX009 (ip), vehicle: water 96 % of control and 90 % of control | dose: 50.0 mg/kg/injection, schedule: Q01DX009 (ip), vehicle: water 106 % of control and 87 % of control and 89 % of control | dose: 100.0 mg/kg/injection, schedule: Q01DX009 (ip), vehicle: water 100 % of control

CCc1ccc(NC(=S)NC(=O)C(C)Oc2ccccc2)cc1 (stereo unspecified)
inactive: dose: 100.0 mg/kg/injection, schedule: Q04DX002 (ip), vehicle: saline 110 % of control | dose: 200.0 mg/kg/injection, schedule: Q04DX002 (ip), vehicle: saline 103 % of control | dose: 400.0 mg/kg/injection, schedule: Q04DX002 (ip), vehicle: saline 90 % of control

O=C(O)C[As](=O)(O)O
inactive: [8] 90 % of control | dose: 60.0 mg/kg/injection, schedule: Q01DX009 (ip), vehicle: saline 97 % of control

CCN(CC)CCOc1ccc(C2=C(c3ccccc3)CCc3cc(OC)ccc32)cc1
inactive: [12] 90 % of control | [13] 92 % of control | [14] 90 % of control

CCC12CCC(Br)C(C1)OC2=O (stereo unspecified)
inactive: [3] 98 % of control | [15] 91 % of control | dose: 400.0 mg/kg/injection, schedule: Q04DX003 (ip), vehicle: saline with Tween-80 93 % of control

CC(C)NC1C2CCC(CC2)C1(O)c1ccc(Cl)c(Cl)c1 (stereo unspecified)
inactive: dose: 25.0 mg/kg/injection, schedule: Q01DX009 (ip), vehicle: saline 101 % of control | dose: 25.0 mg/kg/injection, schedule: Q04DX003 (ip), vehicle: saline 95 % of control | [16] 95 % of control | dose: 50.0 mg/kg/injection, schedule: Q04DX003 (ip), vehicle: saline 97 % of control | [17] 100 % of control | [18] 92 % of control | [19] 95 % of control | [20] 101 % of control | dose: 400.0 mg/kg/injection, schedule: Q01DX009 (ip), vehicle: saline 92 % of control | dose: 400.0 mg/kg/injection, schedule: Q04DX003 (ip), vehicle: saline 92 % of control

O=C(CCC(=O)c1cccc([N+](=O)[O-])c1)NNc1ccc([N+](=O)[O-])cc1[N+](=O)[O-]
inactive: dose: 100.0 mg/kg/injection, schedule: Q01DX009 (ip), vehicle: saline with Tween-80 95 % of control | dose: 200.0 mg/kg/injection, schedule: Q01DX009 (ip), vehicle: saline with Tween-80 105 % of control | dose: 400.0 mg/kg/injection, schedule: Q01DX009 (ip), vehicle: saline with Tween-80 92 % of control

Cc1ccc(I)c([N+](=O)[O-])c1
inactive: dose: 50.0 mg/kg/injection, schedule: Q01DX001 (ip), vehicle: carboxymethylcellulose (CMC) 96 % of control | [12] 89 % of control | [13] 91 % of control | [14] 100 % of control

CCOC(=O)CCC1(CN2c3ccccc3Sc3ccccc32)CCN(C)C1 (stereo unspecified)
inactive: [4] 87 % of control

CNc1ccccc1C(=O)N/N=C/c1ccccc1Cl
inactive: dose: 100.0 mg/kg/injection, schedule: Q04DX002 (ip), vehicle: Klucel (hydroxypropylcellulose) (HPC) 108 % of control | dose: 200.0 mg/kg/injection, schedule: Q04DX002 (ip), vehicle: Klucel (hydroxypropylcellulose) (HPC) 93 % of control | dose: 400.0 mg/kg/injection, schedule: Q04DX002 (ip), vehicle: Klucel (hydroxypropylcellulose) (HPC) 86 % of control

C[N+]1(C2CCC3CCC2C3O)CCCCC1 (stereo unspecified)
inactive: [16] 100 % of control | [17] 110 % of control | [18] 101 % of control | [19] 110 % of control | [20] 101 % of control

CCOC1(OCC)CC2C(=O)CCCC21OC(C)=O (stereo unspecified)
inactive: dose: 75.0 mg/kg/injection, schedule: Q04DX002 (ip), vehicle: saline 111 % of control | dose: 150.0 mg/kg/injection, schedule: Q04DX002 (ip), vehicle: saline 105 % of control | dose: 300.0 mg/kg/injection, schedule: Q04DX002 (ip), vehicle: saline 101 % of control

CCOC(=O)C(C#N)S(C)(=O)=O (stereo unspecified)
inactive: [4] 89 % of control | [5] 95 % of control

Cc1ccc2cccc([N+](=O)[O-])c2n1
inactive: dose: 12.5 mg/kg/injection, schedule: Q01DX009 (ip), vehicle: saline with Tween-80 93 % of control | dose: 25.0 mg/kg/injection, schedule: Q01DX009 (ip), vehicle: saline with Tween-80 93 % of control | [1] 101 % of control | dose: 50.0 mg/kg/injection, schedule: Q01DX009 (ip), vehicle: saline with Tween-80 103 % of control | [2] 95 % of control | [3] 105 % of control and 106 % of control | [15] 106 % of control

O=C(CCCC(=O)NNC(=O)Nc1ccc(N=Nc2ccccc2)cc1)NNC(=O)Nc1ccc(N=Nc2ccccc2)cc1
inactive: dose: 50.0 mg/kg/injection, schedule: Q01DX001 (ip), vehicle: saline 93 % of control | [4] 102 % of control | [5] 96 % of control | [6] 100 % of control

COC(=O)c1ccc2c3c(ccc(C(=O)OC)c13)C=C2
inactive: [4] 102 % of control | [5] 94 % of control | [6] 95 % of control

N#CC(C#N)=C1CCCc2sccc21
inactive: [4] 90 % of control | [5] 95 % of control | [6] 92 % of control

Nc1ncnc(N)c1NC(=O)c1cccc([N+](=O)[O-])c1
inactive: [9] 98 % of control | [10] 103 % of control | [11] 93 % of control

C/C=C(\Nc1ccc([N+](=O)[O-])cc1[N+](=O)[O-])C(=O)OC
inactive: [4] 101 % of control | [5] 98 % of control | [6] 101 % of control
